The values below come from US11518758B2, “Heteroarylaminopyrimidine amide autophagy inhibitors and methods of use thereof” (Deciphera Pharmaceuticals, LLC, priority 2019, dated 2022).

Test [1] concerns the target T1, ULK1 kinase (Homo sapiens, UniProt O75385, E37A/K38A).
T1 construct: (residues 1-283; ID NO: 2); purchased Beryllium
T1 sequence (O75385 1-283 E37A/K38A): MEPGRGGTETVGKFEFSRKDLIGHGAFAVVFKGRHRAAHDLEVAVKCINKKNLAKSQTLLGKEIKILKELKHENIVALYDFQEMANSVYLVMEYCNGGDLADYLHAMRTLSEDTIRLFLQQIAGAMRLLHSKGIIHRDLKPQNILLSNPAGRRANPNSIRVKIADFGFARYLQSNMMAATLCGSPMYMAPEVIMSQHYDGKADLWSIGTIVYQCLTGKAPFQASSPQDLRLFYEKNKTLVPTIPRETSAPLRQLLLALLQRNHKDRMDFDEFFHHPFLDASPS
The test can be described thus: Biochemical assay for ULK1.3 (coupled pyruvate kinase/lactate dehydrogenase assay). Conditions: 0.1 nM ULK1 (from Beryllium), peptide substrate, 1 mM ATP. The method, then: Example 175. Biochemical Assay for ULK1.3
Activity of ULK1 kinase was determined spectroscopically using a coupled pyruvate kinase/lactate dehydrogenase assay that continuously monitors the ATP hydrolysis-dependent oxidation of NADH (e.g., Schindler et al. Science (2000) 289: 1938-1942). Assays were conducted in 384-well plates (100 uL final volume) using 0.1 nM ULK1 (from Beryllium), 0.075 mM peptide substrate (YANWLAASIYLDGKKK (SEQ ID NO: 5)), 1.5 units pyruvate kinase, 2.1 units lactate dehydrogenase, 1 mM phosphoenol pyruvate, 0.28 mM NADH and 1 mM ATP in assay buffer (100 mM Tris, pH 7.5, 15 mM MgCl2, 0.5 mM DTT, 0.004% (w/v) BSA, and 0.004% Triton X-100). Inhibition of ULK1 was measured by adding serial diluted test compound (final assay concentration of 1% DMSO). A decrease in absorption at 340 nm was monitored continuously for 6 hours at 30° C. on a multi-mode microplate reader (BioTek). The reaction rate was calculated using the 2-3 h time frame. The reaction rate at each concentration of compound was converted to percent inhibition using controls (i.e. reaction with no test compound and reaction with a known inhibitor) and IC50 values were calculated using software routines in Prism (GraphPad software).

Test [2] addresses T2, ULK1 kinase (Homo sapiens, UniProt O75385).
T2 construct: purchased Eurofins 14-959
T2 sequence (O75385 with tags, fused parts or gaps): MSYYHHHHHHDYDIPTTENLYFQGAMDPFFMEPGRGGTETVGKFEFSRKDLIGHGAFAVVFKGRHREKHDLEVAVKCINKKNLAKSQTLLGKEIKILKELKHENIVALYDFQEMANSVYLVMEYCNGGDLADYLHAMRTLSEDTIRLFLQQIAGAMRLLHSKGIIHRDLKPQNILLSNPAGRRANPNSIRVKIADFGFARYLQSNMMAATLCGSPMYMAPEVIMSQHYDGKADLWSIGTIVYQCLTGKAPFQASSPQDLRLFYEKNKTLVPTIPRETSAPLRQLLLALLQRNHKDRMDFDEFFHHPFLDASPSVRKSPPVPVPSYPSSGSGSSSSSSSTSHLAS
Put plainly: Biochemical assay for ULK1.2 (coupled pyruvate kinase/lactate dehydrogenase assay). The following applies: 19 nM ULK1 (Eurofins), myelin basic protein, 1 mM ATP. Summed up:
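NADH-coupled PK/LDH read-out at 340 nm, run with 19 nM ULK1, 0.25 mg/mL myelin basic protein and 1 mM ATP. Buffer was 100 mM Tris pH 7.5 with 15 mM MgCl2 and 1% DMSO final. Monitoring was continuous for 6 hours at 30° C; rates from the 2-3 h window were converted to percent inhibition and fitted to a four-parameter curve for IC50.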

In the next test the target is T3, ULK2 kinase (Homo sapiens, UniProt Q8IYT8).
T3 construct: purchased Eurofins 14-772
The test can be described thus: Biochemical assay for ULK2 (coupled pyruvate kinase/lactate dehydrogenase assay). The following applies: 9.7 nM ULK2 (Eurofins), myelin basic protein, 1 mM ATP; read-out: ULK2.2. The method, then: Example 176. Biochemical Assay for ULK2
Activity of ULK2 kinase was determined spectroscopically using a coupled pyruvate kinase/lactate dehydrogenase assay that continuously monitors the ATP hydrolysis-dependent oxidation of NADH (e.g., Schindler et al. Science (2000) 289: 1938-1942). Assays were conducted in 384-well plates (100 uL final volume) using 9.7 nM ULK2 (Eurofins CAT #14-772), 0.25 mg/mL myelin basic protein, 1.5 units pyruvate kinase, 2.1 units lactate dehydrogenase, 1 mM phosphoenol pyruvate, 0.28 mM NADH and 1 mM ATP in assay buffer (100 mM Tris, pH 7.5, 15 mM MgCl2, 0.5 mM DTT, 0.1% octyl-glucoside, 0.002% (w/v) BSA, and 0.002% Triton X-100). Inhibition of ULK2 was measured by adding serial diluted test compound (final assay concentration of 1% DMSO). A decrease in absorption at 340 nm was monitored continuously for 6 hours at 30° C. on a multi-mode microplate reader (BioTek). The reaction rate was calculated using the 2-3 h time frame. The reaction rate at each concentration of compound was converted to percent inhibition using controls (i.e. reaction with no test compound and reaction with a known inhibitor) and IC50 values were calculated by fitting a four-parameter sigmoidal curve to the data using Prism (GraphPad software).

The target of a further test is T4, LRRK2 kinase (Homo sapiens, UniProt Q5S007).
T4 construct: purchased Thermo Fisher
The test can be described thus: Biochemical assay for LRRK2 (coupled pyruvate kinase/lactate dehydrogenase assay). Conditions: 26.4 nM LRRK2 (residues 970-2528), 0.1 mM peptide substrate, 1 mM ATP. The method, then: Example 182. Biochemical Assay for LRRK2 (SEQ. ID NO. 4)
Activity of LRRK2 kinase was determined spectroscopically using a coupled pyruvate kinase/lactate dehydrogenase assay that continuously monitors the ATP hydrolysis-dependent oxidation of NADH (e.g., Schindler et al. Science (2000) 289: 1938-1942). Assays were conducted in 384-well plates (100 uL final volume) using 26.4 nM LRRK2 (Thermo Fisher), 0.1 mM peptide substrate (RLGRDKYKTLRQIRQ (SEQ ID NO: 6)), 1.5 units pyruvate kinase, 2.1 units lactate dehydrogenase, 1 mM phosphoenol pyruvate, 0.28 mM NADH and 1 mM ATP in assay buffer (100 mM Tris, pH 7.5, 15 mM MgCl2, 0.5 mM DTT, 0.004% (w/v) BSA, and 0.004% Triton X-100). Inhibition of LRRK2 was measured by adding serial diluted test compound (final assay concentration of 1% DMSO). A decrease in absorption at 340 nm was monitored continuously for 6 hours at 30° C. on a multi-mode microplate reader (BioTek). The reaction rate was calculated using the 2-3 h time frame. The reaction rate at each concentration of compound was converted to percent inhibition using controls (i.e. reaction with no test compound and reaction with a known inhibitor) and IC50 values were calculated using software routines in Prism (GraphPad software).

Test [3] relates to phospho-Serine 318 ATG13 (pATG13), ULK kinase substrate, in A549 (KRAS mutant) cells. The test can be described thus: pATG13 levels of mutant KRas A549 cells after treatment with ULK inhibitors in combination with trametinib (ELISA). Format: cell-based, human. The following applies: with 250 nM trametinib. The method, then:
Example 177. Cellular Inhibition of ULK Kinase Substrate ATG13 Protein pATG13 Levels of Mutant KRas A549 Cells after Treatment with ULK Inhibitors in Combination with Trametinib
A549 (KRAS mutant) human lung cancer cells (6,000 cells/well) were added to a 384-well tissue-culture treated plate in 50 μL of pre-warmed DMEM medium supplemented with 10% characterized fetal bovine serum (Invitrogen, Carlsbad, Calif.), 100 units/mL penicillin G, and 100 μg/mL streptomycin and allowed to grow overnight at 37° C., 5% CO2, and 95% humidity. The following day, 10 μL of media containing trametinib or DMSO as a control was added to wells. The final concentration of trametinib in wells was 250 nM. A dose response of a test compound (0.6 μL per well) was added. DMSO (0.6 μL) was added to control wells. The plate was briefly shaken to mix wells and then incubated at 37° C. overnight. The next day, the media was aspirated and cells were washed with Dulbecco's Phosphate Buffered Saline (Gibco). Cells were lysed using MPER lysis buffer (Pierce, Rockford, Ill.) containing Halt Phosphatase and Protease Inhibitors (Pierce, Rockford, Ill.) and Phosphatase inhibitor cocktail 2 (Sigma, St. Louis, Mo.) at 4° C. for 10 minutes with shaking.
Cellular levels of phospho-Serine 318 ATG13 (pATG13) were measured via an ELISA method. Total ATG13 Antibody (Cell Signaling Cat #13273) was used to coat the wells. The plate was incubated at 4° C. overnight and washed with ELISA wash buffer (Biolegend Cat #421601). The wells were then blocked with assay diluent (Biolegend Cat #421203) for 1 hour at room temperature. Plate wells were washed with ELISA wash buffer. Cell lysate was added to wells and incubated at room temperature for 2 hours. Plate wells were washed with ELISA wash buffer. Biotinylated pS318-ATG13 antibody (Rockland Immunochemicals Cat #600-401-C49) was diluted in assay diluent and added to each well and incubated at room temperature for 1 hour. Plate wells were washed with ELISA wash buffer. Streptavidin linked to horseradish peroxidase (Thermo Fisher Cat #21140) was diluted in assay diluent and added to each well and incubated at room temperature for 1 hour. Plate wells were washed with ELISA wash buffer. High sensitivity TMB substrate (Biolegend Cat #421101) was added to each well and incubated at room temperature for 20 minutes. The reaction was stopped with 2N Sulfuric Acid. The plate was analyzed at on a plate reader measuring absorbance at 450 nm and 540 nm (background). Signal was calculated by first subtracting the background absorbance at 540 nm from the absorbance at 450 nm for each well. Next, the background corrected absorbance at 450 nm from blank wells was subtracted from test wells. Data was compared to control wells to determine % ATG13 phosphorylation. GraphPad Prism was used to calculate IC50 values.
On the technique in general: An ELISA detects its analyte on a solid surface through an enzyme-linked reagent.

T4 sequence (Q5S007 with tags, fused parts or gaps): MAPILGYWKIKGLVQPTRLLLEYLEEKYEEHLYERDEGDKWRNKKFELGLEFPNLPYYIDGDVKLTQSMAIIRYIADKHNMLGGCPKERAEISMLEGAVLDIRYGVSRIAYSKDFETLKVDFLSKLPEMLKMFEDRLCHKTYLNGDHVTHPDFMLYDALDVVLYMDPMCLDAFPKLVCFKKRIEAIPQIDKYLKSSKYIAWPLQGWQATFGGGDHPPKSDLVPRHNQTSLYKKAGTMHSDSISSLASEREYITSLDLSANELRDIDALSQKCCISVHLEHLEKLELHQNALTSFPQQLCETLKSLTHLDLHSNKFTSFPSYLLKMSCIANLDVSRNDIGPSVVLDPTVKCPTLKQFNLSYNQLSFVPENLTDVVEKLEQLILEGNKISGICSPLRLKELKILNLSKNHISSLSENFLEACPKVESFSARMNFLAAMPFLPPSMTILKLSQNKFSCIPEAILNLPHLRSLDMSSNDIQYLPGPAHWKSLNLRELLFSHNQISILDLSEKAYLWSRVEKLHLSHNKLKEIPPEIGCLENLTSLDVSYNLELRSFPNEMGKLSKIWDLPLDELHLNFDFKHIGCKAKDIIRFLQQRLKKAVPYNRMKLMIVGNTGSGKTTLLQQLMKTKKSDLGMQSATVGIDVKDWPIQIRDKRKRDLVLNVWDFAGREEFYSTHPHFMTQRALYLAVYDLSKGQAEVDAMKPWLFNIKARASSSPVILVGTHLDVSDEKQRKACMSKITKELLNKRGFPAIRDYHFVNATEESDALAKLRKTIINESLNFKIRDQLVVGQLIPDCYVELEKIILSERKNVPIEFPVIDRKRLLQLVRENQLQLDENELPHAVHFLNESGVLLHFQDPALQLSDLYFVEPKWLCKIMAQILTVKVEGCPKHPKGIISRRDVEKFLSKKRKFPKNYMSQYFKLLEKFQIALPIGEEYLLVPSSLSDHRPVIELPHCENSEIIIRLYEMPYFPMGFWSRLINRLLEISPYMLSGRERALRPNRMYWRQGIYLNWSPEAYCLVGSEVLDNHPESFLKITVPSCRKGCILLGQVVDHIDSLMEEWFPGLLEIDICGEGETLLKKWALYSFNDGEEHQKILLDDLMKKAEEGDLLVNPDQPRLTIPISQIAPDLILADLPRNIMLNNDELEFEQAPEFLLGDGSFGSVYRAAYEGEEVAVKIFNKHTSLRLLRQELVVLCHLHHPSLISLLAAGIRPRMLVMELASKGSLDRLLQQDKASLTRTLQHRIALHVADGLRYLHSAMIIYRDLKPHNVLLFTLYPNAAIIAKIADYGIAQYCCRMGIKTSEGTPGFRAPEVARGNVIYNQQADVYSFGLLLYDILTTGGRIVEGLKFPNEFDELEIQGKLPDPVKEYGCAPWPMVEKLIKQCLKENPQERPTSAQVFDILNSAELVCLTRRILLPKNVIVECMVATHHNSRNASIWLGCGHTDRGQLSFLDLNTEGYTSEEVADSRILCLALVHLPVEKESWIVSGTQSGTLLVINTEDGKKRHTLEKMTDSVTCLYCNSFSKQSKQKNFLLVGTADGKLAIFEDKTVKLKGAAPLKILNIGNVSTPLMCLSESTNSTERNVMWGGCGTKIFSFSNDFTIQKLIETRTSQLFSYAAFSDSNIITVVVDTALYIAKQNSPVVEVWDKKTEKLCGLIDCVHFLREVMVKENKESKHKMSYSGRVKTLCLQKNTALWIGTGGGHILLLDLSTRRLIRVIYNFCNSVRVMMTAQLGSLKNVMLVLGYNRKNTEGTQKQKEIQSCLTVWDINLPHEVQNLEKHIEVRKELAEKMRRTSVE
T3 sequence (Q8IYT8 with tags, fused parts or gaps): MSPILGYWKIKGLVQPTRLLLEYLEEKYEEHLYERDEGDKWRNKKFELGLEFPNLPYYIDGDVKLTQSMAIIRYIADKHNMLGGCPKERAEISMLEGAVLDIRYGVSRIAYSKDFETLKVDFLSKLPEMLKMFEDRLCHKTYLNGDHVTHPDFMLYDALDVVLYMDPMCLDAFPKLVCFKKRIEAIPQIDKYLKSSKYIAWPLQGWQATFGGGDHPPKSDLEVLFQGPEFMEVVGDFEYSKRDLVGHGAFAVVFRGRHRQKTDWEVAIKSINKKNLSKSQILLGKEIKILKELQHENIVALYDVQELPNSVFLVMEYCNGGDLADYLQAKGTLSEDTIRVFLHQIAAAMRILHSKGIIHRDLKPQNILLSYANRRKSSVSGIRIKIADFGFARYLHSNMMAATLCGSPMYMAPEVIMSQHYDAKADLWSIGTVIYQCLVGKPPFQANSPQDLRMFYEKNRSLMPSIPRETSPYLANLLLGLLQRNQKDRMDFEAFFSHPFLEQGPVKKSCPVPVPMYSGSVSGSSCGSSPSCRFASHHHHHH

On to `Cc1nn(CCN(C)C)cc1Nc1ncc(C(F)(F)F)c(NCCCN2CCOCCC2=O)n1` [Example 137], for which the IC50 against ULK1 kinase [1] lay within 100 to 500 nM.
Same read-out and setting: under `Cc1nn(CCN(C)C)cc1Nc1ncc(C(F)(F)F)c(NCCCN2CCCOCC2=O)n1` [Example 117] stands 25 to 100 nM; under `Cc1nn(CCCN2CCOCC2)cc1Nc1ncc(Br)c(NCCCN2CCCOCC2=O)n1` [Example 121], 100 to 500 nM.
For `CN1CCC(n2cc(Nc3ncc(C4CC4)c(NCCCN4CCCCC4=O)n3)cn2)CC1` [Example 1], the IC50 against ULK1 kinase [2] is 25 to 100 nM; on ULK2 kinase, above 500 nM; at LRRK2 kinase it was above 600 nM.
The compound `Cc1nn(C2CCN(C(C)C)CC2)cc1Nc1ncc(Cl)c(NCCCN2CCOCCC2=O)n1` [Example 143] displayed an IC50 against ULK1 kinase [1] of 100 to 500 nM.
Take `CN1CCC(n2cc(Nc3ncc(C(F)(F)F)c(NCCCN4CCCC4=O)n3)cn2)CC1` [Example 166]: the IC50 lay in the range of 1 to 25 nM at ULK1 kinase [2], 25 to 100 nM on ULK2 kinase and 100 to 300 nM in test [3].
For the compound `CCN1CCC(n2cc(Nc3ncc(C4CC4)c(NCCCN4CCOCCC4=O)n3)c(C)n2)CC1` [Example 142], the IC50 at ULK1 kinase [1] is above 500 nM.
`CN1CCC(n2cc(Nc3ncc(C4CC4)c(NCCCN4CCN(C)C4=O)n3)cn2)CC1` [Example 147]: the IC50 at ULK1 kinase [2] is 100 to 500 nM; on ULK2 kinase, above 500 nM; against LRRK2 kinase, above 600 nM.
In turn, `Cc1nn(CCN(C)C)cc1Nc1ncc(Br)c(NCCCN2CCOCCC2=O)n1` [Example 144] showed an IC50 against ULK1 kinase [1] of 100 to 500 nM.
As for `Cc1nn(C2CCNCC2)cc1Nc1ncc(C(F)(F)F)c(NCCCN2CCCCCC2=O)n1` [Example 83, 1-(3-((2-((3-methyl-1-(piperidin-4-yl)-1H-pyrazol-4-yl)amino)-5-(trifluoromethyl)pyrimidin-4-yl)amino)propyl)azepan-2-one], the IC50 against ULK1 kinase [2] lay within 1 to 25 nM; on ULK2 kinase, 1 to 25 nM; in test [3], 100 to 300 nM.
On to `Cc1nn(C2CCN(C)CC2)cc1Nc1ncc(C(F)(F)F)c(NCCCN2CCCC2=O)n1` [Example 104], for which the IC50 against ULK1 kinase [2] was 25 to 100 nM; at ULK2 kinase it was 25 to 100 nM; in test [3], above 600 nM; at LRRK2 kinase, 300 to 600 nM.
`CCN1CC[C@@H](n2cc(Nc3ncc(C(F)(F)F)c(NCCCN4CCCCC4=O)n3)c(C)n2)C1` [Example 25]: the IC50 at ULK1 kinase [2] lay within 1 to 25 nM; on ULK2 kinase it was 25 to 100 nM; in test [3], 10 to 100 nM.
The like results for `Cc1nn(C2CCN(C3COC3)CC2)cc1Nc1ncc(C(F)(F)F)c(NCCCN2CCCCCC2=O)n1` [Example 91] were, in that order, 1 to 25 nM, 100 to 500 nM and 300 to 600 nM.
For the compound `CN1CCC(n2cc(Nc3ncc(C(F)(F)F)c(NCCCN4CCCCCC4=O)n3)cn2)CC1` [Example 78], the IC50 against ULK1 kinase [2] was 1 to 25 nM; at ULK2 kinase, 1 to 25 nM; in test [3], 10 to 100 nM.
On to `Cc1nn(C2CCN(C)CC2)cc1Nc1ncc(Cl)c(NCCCN2CCCCCC2=O)n1` [Example 80, 1-(3-((5-chloro-2-((3-methyl-1-(1-methylpiperidin-4-yl)-1H-pyrazol-4-yl)amino)pyrimidin-4-yl)amino)propyl)azepan-2-one], for which the IC50 was 1 to 25 nM against ULK1 kinase [2], 100 to 500 nM on ULK2 kinase, 10 to 100 nM in test [3] and 100 to 300 nM against LRRK2 kinase.
The corresponding values for `Cc1nn(C2CCNCC2)cc1Nc1ncc(Br)c(NCCCN2CCCCC2=O)n1` [Example 26] are 1 to 25 nM, 25 to 100 nM, above 600 nM and 300 to 600 nM.
As for `CN1CCC(n2cc(Nc3ncc(Cl)c(NCCCN4CCCCCC4=O)n3)cn2)CC1` [Example 81], the values for the IC50 (against ULK1 kinase [2]; at ULK2 kinase; in test [3]) were 1 to 25 nM, 1 to 25 nM and 10 to 100 nM, respectively.
